{"source": "patent US8071641B2", "about": "(Yissum Research Development Company of the Hebrew …, priority 2004, dated 2011)", "key": {"[1]": {"tested_on": "NOD mice", "experiment": "Spontaneous diabetes in NOD mice (glucosuria, IPGTT)", "format": "in vivo", "text": "Animals: Non-obese diabetic (NOD) mice develop spontaneous autoimmune diabetes and are commonly used as an experimental model for human insulin-dependent diabetes mellitus [Miazaki A., Clin. Exp. Immunol. 60:622 (1998); Harada, M., Exp. Clin. Endocrinol. 89: 251 (1987)].\nSix to twelve week old NOD/Ltj female mice were fed standard laboratory animal chow ad libitum and were kept in Specific Pathogen Free (SPF) animal house facility.\n(§1) Mice injected with vehicle alone as well as untreated mice served as controls.\nGlucosuria analysis: The severity of diabetes was determined according to glucosuria, which was measured using Combi 9 Teststrips (Medi-Test, Macherey-Nagel, Duren, Germany).\nIntraperitoneal glucose tolerance tests (IPGTT): Blood samples were obtained from the paraorbital plexus at 0 and 60 minutes after administration of an i.p. glucose injection at a dose of 1 g/kg body weight. Plasma glucose levels were determined using Glucose Analyzer 2 (Beckman Instruments). A glucose level above 15 mmol/liter at the 60 min time point was considered as a positive IPGTT."}, "[2]": {"tested_on": "INFγ", "experiment": "Plasma INFγ level in NOD mice by ELISA", "format": "in vivo", "settings": "5 mg/kg i.p., mean of 5 mice", "procedure": "as §1\nPlasma INFγ: INFγ is associated with the progression of diabetes in NOD mice (Schloot, N. C., Diabetes Metab. Res. Rev. 18:64, 2002; Weiss et al., Cytokine 19:85, 2002; Braz, J., Med. Biol. Res. 35: 1347, 2000).\nPlasma INFγ levels in mice were determined by ELISA kit (B.D Bioscience San Diego U.S.A)."}, "[3]": {"tested_on": "islets of Langerhans", "experiment": "Histopathology of pancreatic islets (insulitis) in NOD mice", "format": "in vivo", "text": "as §1\nHistopathology: Twenty weeks after onset of treatment mice were sacrificed. Pancreatic tissue samples were fixed in 4% buffered formation, embedded in paraffin, sectioned (5 μm thickness) and stained with hematoxylin and eosin. The stained pancreatic sections were observed under a microscope for infiltration of mononuclear lymphocytes into the islets of Langerhans (insulitis). The sections were scored by two uninformed observers as follows: 0, no cell infiltration; 1, cell infiltration in <20% of islet area; 2, cell infiltration in <50% of islet area; cell infiltration in <75% of islet area; and 4, cell infiltration in 90-100% of islet area."}, "[4]": {"tested_on": "male NOD mice", "experiment": "Diabetes induced in male NOD mice by transfer of spleen cells from diabetic female mice", "format": "in vivo", "procedure": "Experimental design—Male NOD mice were irradiated (650 cGy), 24 hrs prior to intravenous injection of spleen cells (25-28×10^6) derived from female diabetic mice.\nIntraperitoneal glucose tolerance tests (IPGTT)—see Example 1 above. Blood glucose levels above 140 mg/dl were considered diabetic by testing blood glucose at t-0, 60 min following IP injection of 1 gr/Kg body weight of glucose [Glucometer Elite apparatus (Bayer Diagnostics, ELKART, IN)]. Alternatively, urine samples were taken twice a week from diabetic mice for testing glucose levels. Urine glucose levels above 1000 mg/dl as determined by combi 9 Teststrips (Medi-Test, Macherey-Nagel, Duren, Germany) were considered diabetic;"}, "[5]": {"tested_on": "mice", "settings": "orally at doses of up to 10 mg/kg; cited from earlier work"}, "[6]": {"tested_on": "mice", "settings": "topical administration; cited from earlier work"}, "[7]": {"tested_on": "mouse peritoneal macrophages", "settings": "macrophages activated by LPS and IFNγ; cited from earlier work"}, "[8]": {"tested_on": "human leukocytes", "settings": "cited from earlier work"}, "[9]": {"biological_target": "peripheral receptors CB2 (Homo sapiens, UniProt P34972)", "sequence (P34972 whole entry)": "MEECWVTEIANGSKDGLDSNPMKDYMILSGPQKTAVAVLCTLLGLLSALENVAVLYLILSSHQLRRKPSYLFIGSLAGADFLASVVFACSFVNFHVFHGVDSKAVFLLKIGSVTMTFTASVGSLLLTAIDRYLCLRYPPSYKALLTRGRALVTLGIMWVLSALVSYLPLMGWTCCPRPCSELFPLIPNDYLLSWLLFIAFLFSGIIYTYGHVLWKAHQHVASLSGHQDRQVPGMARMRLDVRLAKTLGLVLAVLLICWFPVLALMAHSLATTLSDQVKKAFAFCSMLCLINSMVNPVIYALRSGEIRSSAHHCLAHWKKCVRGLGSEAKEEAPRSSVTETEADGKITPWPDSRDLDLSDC", "settings": "cited from earlier work"}, "[10]": {"settings": "20 weeks after onset of treatment, of 54 scored fields"}, "[11]": {"settings": "5 mg/kg CBD, 20 IP injections, 5 times/week, of 15 mice"}, "[12]": {"settings": "high concentrations (5-24 pg/ml)"}}, "note": "Where “and” joins values, the source holds several entries; their conditions need not be identical. Equal values may be shown once."}
{"smiles": "C=C(C)[C@@H]1CCC(C)=C[C@H]1c1c(O)cc(CCCCC)cc1O", "note": "[CBD, Cannabidiol]", "values": [{"measurement": "onset of symptoms in the CBD-treated diabetic mice", "setting": "[1]; compared to untreated and vehicle-treated controls", "result": "substantially delayed"}, {"measurement": "rate of protection", "setting": "[1]; compared with controls", "result": "greater than 65%"}, {"measurement": "Diabetes appearance (weeks), mean and range of weeks of first positive diagnosis", "setting": "[1]; female NOD mice, 5 mg/kg i.p.", "result": "18.4 (15-22) weeks"}, {"measurement": "Diabetes incidence (%)", "setting": "[1]; female NOD mice, 5 mg/kg i.p., 5 injections per week, 10-23 injections", "result": 21.7, "unit": "%"}, {"measurement": "No. of diabetic mice", "setting": "[1]; female NOD mice, 5 mg/kg i.p., 5 injections per week, 10-23 injections, of 23 mice", "result": 5}, {"measurement": "INFγ (pg/ml) ± SD", "setting": "[2]", "result": "43 pg/ml and 43 ± 21*^2 pg/ml"}, {"measurement": "islets showing destruction", "setting": "[3]; 1/54", "result": 1.9, "unit": "%"}, {"measurement": "islets showing total infiltration", "setting": "[3]; 6/54", "result": 11, "unit": "%"}, {"measurement": "protected islets (intact or only partially infiltrated)", "setting": "[3]; 20 week period, 47/54", "result": 87, "unit": "%"}, {"measurement": "No. of fully destroyed islets", "setting": "[3]; [10]", "result": 1}, {"measurement": "No. of intact islets", "setting": "[3]; [10]", "result": 26}, {"measurement": "No. of partially infiltrated islets", "setting": "[3]; [10]", "result": 21}, {"measurement": "No. of totally infiltrated islets", "setting": "[3]; [10]", "result": 6}, {"measurement": "only partially infiltrated pancreatic islets", "setting": "[3]; 21/54", "result": 39, "unit": "%"}, {"measurement": "intact pancreatic islets", "setting": "[3]; 26/54", "result": 48, "unit": "%"}, {"measurement": "Total % of diabetic mice", "setting": "[4]; 5 mg/kg CBD, 20 IP injections, 5 times/week", "result": 53, "unit": "%"}, {"measurement": "No. of diabetic mice (urine glucose above 1000 mg/dl)", "setting": "[4]; [11]", "result": 6}, {"measurement": "No. of mice w/ latent diabetes (blood glucose above 140 mg/dl 60 minutes following IP glucose injection)", "setting": "[4]; [11]", "result": 2}, {"measurement": "suppression of the appearance of diabetes", "setting": "[4]; male NOD mice injected with splenocytes from diabetic female NOD mice", "result": "about half"}, {"measurement": "PBQ-induced writhing", "setting": "[5]", "result": "inhibited"}, {"measurement": "TPA-induced erythema", "setting": "[6]", "result": "reduce"}, {"measurement": "nitric oxide (NO) produced", "setting": "[7]", "result": "inhibited"}, {"measurement": "IFNγ synthesis", "setting": "[8]; [12]", "result": "completely blocked"}, {"measurement": "IL-1 production", "setting": "[8]; [12]", "result": "decreased"}, {"measurement": "IL-2 secretion", "setting": "[8]; [12]", "result": "did not affect"}, {"measurement": "TNFα production", "setting": "[8]; [12]", "result": "decreased"}, {"measurement": "IFNγ production", "setting": "[8]; low concentrations", "result": "increased"}, {"measurement": "binding to peripheral receptors CB2", "setting": "[9]", "result": "does not bind"}]}
